One test relates to DLD-1 BRCA2−/− cells. In words: Homologous recombination synthetic lethal inhibition of proliferation, DLD-1 BRCA2-/- (Cell Titre Glo 3D). It counts as cell-based. To be noted: for IC50: Homo sapiens, read-out: POLQ PD Prolif Lumin (converted); for POLQ PD Prolif Lumin: DLD-1 BRCA2-/- proliferation. In a few lines:
(§1)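 Read-out: CellTiter-Glo 3D luminescence, day 7 for wt DLD-1, day 12 for BRCA2−/−, about 8-9 population doublings each. Seeding 1,500 or 3,000 cells/mL respectively. Dose range 10 μM–0.51 nM, 3-fold, 10 points, with re-dosing on day 6. IC50 from curve fit.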

The subject of the next test is DLD-1 cells. In words: Inhibition of proliferation, DLD-1 BRCA2 wt control (Cell Titre Glo 3D). To be noted: for IC50: Homo sapiens, read-out: POLQ PD Prolif Lumin (converted); for POLQ PD Prolif Lumin: DLD-1 BRCA2 wt control proliferation. It counts as cell-based. In short, it runs like this: as §1
Setting [1] is: DLD-1, DLD-1 BRCA2-/- proliferation, column head only partly shown.
Where [2] appears, read: DLD-1, DLD-1 BRCA2 wt control proliferation, column head only partly shown.
Where [3] appears, read: DLD-1, first proliferation column (c5), taken as DLD-1 BRCA2-/-.
The mark [4] stands for this setting: DLD-1, second proliferation column (c6), taken as DLD-1 BRCA2 wt.

Read-outs that look alike come from different tables or passages of the source.

As for `Cc1cnc(Cn2c(-c3ccc(OC[C@H]4CCCN4C)cc3Cl)nc3c(OC4(C)CC4)ncnc32)s1` [Example T240, (R)-2-((8-(2-chloro-4-((1-methylpyrrolidin-2-yl)methoxy)phenyl)-6-(1-methylcyclopropoxy)-9H-purin-9-yl)methyl)-5-methylthiazole], the IC50 was 0.316 µM in the test on DLD-1 BRCA2−/− cells (setting [1]) and more than 10 µM in the test with DLD-1 cells (setting [2]).

Consider `Cc1cnc(Cn2c(-c3ccc(OC4CCN(C)CC4)cc3Cl)nc3c(OC4(C)CC4)ncnc32)s1` [Example T241, 2-((8-(2-chloro-4-((1-methylpiperidin-4-yl)oxy)phenyl)-6-(1-methylcyclopropoxy)-9H-purin-9-yl)methyl)-5-methylthiazole], for which the IC50 was 0.316 µM with DLD-1 BRCA2−/− cells (setting [1]) and more than 10 µM in the test on DLD-1 cells (setting [2]).

Take `Cc1cnc(Cn2c(-c3ccc(OCCCN4CC(O)C4)cc3Cl)nc3c(OC4(C)CC4)ncnc32)s1` [Example T244, 1-(3-(3-chloro-4-(6-(1-methylcyclopropoxy)-9-((5-methylthiazol-2-yl)methyl)-9H-purin-8-yl)phenoxy)propyl)azetidin-3-ol]: the results for the IC50 with DLD-1 BRCA2−/− cells (setting [1]) and in the test on DLD-1 cells (setting [2]) were 0.501 µM and more than 7.94 µM, respectively.

As for `Cc1cnc(Cn2c(-c3cccc(OCCCN4CC(O)C4)c3Cl)nc3c(OC4(C)CC4)ncnc32)s1` [Example T246, 1-(3-(2-chloro-3-(6-(1-methylcyclopropoxy)-9-((5-methylthiazol-2-yl)methyl)-9H-purin-8-yl)phenoxy)propyl)azetidin-3-ol], the IC50 in the test with DLD-1 BRCA2−/− cells (setting [1]) is 0.794 µM; in the test on DLD-1 cells (setting [2]), more than 10 µM.

As to `Cc1csc(Cn2c(-c3ccc(OCCN4CCNCC4)cc3Cl)nc3c(OC4(C)CC4)ncnc32)n1` [Example T248, 2-((8-(2-chloro-4-(2-(piperazin-1-yl)ethoxy)phenyl)-6-(1-methylcyclopropoxy)-9H-purin-9-yl)methyl)-4-methylthiazole], the IC50 in the test on DLD-1 BRCA2−/− cells (setting [1]) was 2 µM; in the test with DLD-1 cells (setting [2]) it was more than 10 µM.

Consider `Cc1ncc(Cn2c(-c3ccc(OCCN4CCNCC4)cc3Cl)nc3c(OC4(C)CC4)ncnc32)s1` [Example T249, 5-((8-(2-chloro-4-(2-(piperazin-1-yl)ethoxy)phenyl)-6-(1-methylcyclopropoxy)-9H-purin-9-yl)methyl)-2-methylthiazole], for which the IC50 was 3.98 µM with DLD-1 BRCA2−/− cells (setting [1]) and more than 10 µM in the test with DLD-1 cells (setting [2]).

As to `CC1(Oc2ncnc3c2nc(-c2ccc(OCc4nc(C(=O)O)cs4)cc2Cl)n3Cc2cccc(Cl)c2)CC1` [Example T250, 2-((3-chloro-4-(9-(3-chlorobenzyl)-6-(1-methylcyclopropoxy)-9H-purin-8-yl)phenoxy)methyl)thiazole-4-carboxylic acid], the IC50 in the test with DLD-1 BRCA2−/− cells (setting [1]) is 3.16 µM; in the test on DLD-1 cells (setting [2]), more than 10 µM.

As to `CC1(Oc2ncnc3c2nc(-c2ccc(O[C@H]4C[C@H](C(=O)O)C4)cc2Cl)n3Cc2cccc(Cl)c2)CC1` [Example T253, (1r,3r)-3-(3-chloro-4-(9-(3-chlorobenzyl)-6-(1-methylcyclopropoxy)-9H-purin-8-yl)phenoxy)cyclobutane-1-carboxylic acid], the “POLQ PD Prolif Lumin” value with DLD-1 BRCA2−/− cells (column head only partly shown) is given as 6.5; in the test on DLD-1 cells (column head only partly shown), less than 5.0.

`CC1(Oc2ncnc3c2nc(-c2ccc(O[C@H]4C[C@@H](C(=O)O)C4)cc2Cl)n3Cc2cccc(Cl)c2)CC1` [Example T254, (1s,3s)-3-(3-chloro-4-(9-(3-chlorobenzyl)-6-(1-methylcyclopropoxy)-9H-purin-8-yl)phenoxy)cyclobutane-1-carboxylic acid]: the “POLQ PD Prolif Lumin” value is given as 6.8 in the test on DLD-1 BRCA2−/− cells (column head only partly shown) and less than 5.0 with DLD-1 cells (column head only partly shown).

As for `CC1(Oc2ncnc3c2nc(-c2ccc(OCCN4CC(O)C4)cc2Cl)n3Cc2cc(C(F)(F)F)ccn2)CC1` [Example T284, 1-(2-(3-chloro-4-(6-(1-methylcyclopropoxy)-9-((4-(trifluoromethyl)pyridin-2-yl)methyl)-9H-purin-8-yl)phenoxy)ethyl)azetidin-3-ol], the values for the IC50 in the test on DLD-1 BRCA2−/− cells (setting [1]) and in the test on DLD-1 cells (setting [2]) were 0.501 µM and more than 10 µM, respectively.

Turning to `CC(C)(C)Oc1cccc2c1nc(-c1ccc(OCCC(=O)O)cc1Cl)n2Cc1cccc(Cl)c1` [Example T288, 3-(4-(4-(tert-butoxy)-1-(3-chlorobenzyl)-1H-benzo[d]imidazol-2-yl)-3-chlorophenoxy)propanoic acid], the IC50 in the test on DLD-1 BRCA2−/− cells (setting [1]) was 2 µM; in the test on DLD-1 cells (setting [2]), more than 10 µM.

With `CC1(Oc2ncnc3c2nc(-c2cccc(OCCCCC(=O)O)c2Cl)n3Cc2cccc(Cl)c2)CC1` [Example T292, 5-(2-chloro-3-(9-(3-chlorobenzyl)-6-(1-methylcyclopropoxy)-9H-purin-8-yl)phenoxy)pentanoic acid], the IC50 with DLD-1 BRCA2−/− cells (setting [1]) was 0.0316 µM; in the test on DLD-1 cells (setting [2]), more than 10 µM.

As to `C[C@@H](CCOc1cccc(-c2nc3c(OC4(C)CC4)ncnc3n2Cc2cccc(Cl)c2)c1Cl)C(=O)O` [Example T296, (S)-4-(2-chloro-3-(9-(3-chlorobenzyl)-6-(1-methylcyclopropoxy)-9H-purin-8-yl)phenoxy)-2-methylbutanoic acid], the IC50 in the test with DLD-1 BRCA2−/− cells (setting [1]) was 0.0251 µM; in the test on DLD-1 cells (setting [2]), more than 10 µM.

Turning to `CC1(Oc2ncnc3c2nc(-c2ccc(OCCCOCC(=O)O)cc2Cl)n3Cc2cccc(Cl)c2)CC1` [Example T302, 2-(3-(3-chloro-4-(9-(3-chlorobenzyl)-6-(1-methylcyclopropoxy)-9H-purin-8-yl)phenoxy)propoxy)acetic acid], the IC50 is 0.316 µM with DLD-1 BRCA2−/− cells (setting [3]) and more than 10 µM in the test with DLD-1 cells (setting [4]).

As to `CC1(Oc2ncnc3c2nc(-c2cccc(OCCCOCC(=O)O)c2Cl)n3Cc2cccc(Cl)c2)CC1` [Example T304, 2-(3-(2-chloro-3-(9-(3-chlorobenzyl)-6-(1-methylcyclopropoxy)-9H-purin-8-yl)phenoxy)propoxy)acetic acid], the values for the IC50 with DLD-1 BRCA2−/− cells (setting [3]) and in the test on DLD-1 cells (setting [4]) were 0.1 µM and more than 10 µM, respectively.

For `CC1(Oc2ncnc3c2nc(-c2ccc(OCCN4CC(O)C4)cc2Cl)n3Cc2cc(C(F)F)ccn2)CC1` [Example T307, 1-(2-(3-chloro-4-(9-((4-(difluoromethyl)pyridin-2-yl)methyl)-6-(1-methylcyclopropoxy)-9H-purin-8-yl)phenoxy)ethyl)azetidin-3-ol], the IC50 was 1.58 µM with DLD-1 BRCA2−/− cells (setting [3]) and more than 10 µM with DLD-1 cells (setting [4]).

In the case of `Cc1ccnc(Cn2c(-c3ccc(CC(=O)N4CCC4)cc3Cl)nc3c(OC4(C)CC4)ncnc32)c1` [Example T308, 1-(azetidin-1-yl)-2-(3-chloro-4-(6-(1-methylcyclopropoxy)-9-((4-methylpyridin-2-yl)methyl)-9H-purin-8-yl)phenyl)ethan-1-one], the IC50 in the test with DLD-1 BRCA2−/− cells (setting [3]) is 0.316 µM; in the test on DLD-1 cells (setting [4]) it was more than 10 µM.

For `Cc1ccnc(Cn2c(-c3ccc(CC(=O)NC4CC4)cc3Cl)nc3c(OC4(C)CC4)ncnc32)c1` [Example T310, 2-(3-chloro-4-(6-(1-methylcyclopropoxy)-9-((4-methylpyridin-2-yl)methyl)-9H-purin-8-yl)phenyl)-N-cyclopropylacetamide], the IC50 in the test with DLD-1 BRCA2−/− cells (setting [3]) is 0.398 µM; with DLD-1 cells (setting [4]), more than 10 µM.

As to `Cc1ccnc(Cn2c(-c3ccc(C(=O)N4CC[C@@H](O)C4)cc3Cl)nc3c(OC4(C)CC4)ncnc32)c1` [Example T311, (R)-(3-chloro-4-(6-(1-methylcyclopropoxy)-9-((4-methylpyridin-2-yl)methyl)-9H-purin-8-yl)phenyl)(3-hydroxypyrrolidin-1-yl)methanone], the IC50 in the test on DLD-1 BRCA2−/− cells (setting [3]) was 3.98 µM; with DLD-1 cells (setting [4]) it was more than 10 µM.

For the molecule `CC1(Oc2ncnc3c2nc(-c2ccc(OCCCC(=O)NS(C)(=O)=O)cc2Cl)n3Cc2cccc(Cl)c2)CC1` [Example T326, 4-(3-chloro-4-(9-(3-chlorobenzyl)-6-(1-methylcyclopropoxy)-9H-purin-8-yl)phenoxy)-N-(methylsulfonyl)butanamide], the IC50 in the test on DLD-1 BRCA2−/− cells (setting [3]) was 0.631 µM; in the test on DLD-1 cells (setting [4]), more than 10 µM.

`CN(C)CCCOc1ccc(-c2nc3c(OC4(C)CC4)ncnc3n2Cc2cc(C(F)(F)F)ccn2)c(Cl)c1` [Example T329, 3-(3-chloro-4-(6-(1-methylcyclopropoxy)-9-((4-(trifluoromethyl)pyridin-2-yl)methyl)-9H-purin-8-yl)phenoxy)-N,N-dimethylpropan-1-amine]: the IC50 was 0.126 µM in the test on DLD-1 BRCA2−/− cells (setting [3]) and 10 µM in the test with DLD-1 cells (setting [4]).

Take `Cc1ccnc(Cn2c(-c3ccc(OC4CCS(=O)(=O)CC4)cc3Cl)nc3c(OC4(C)CC4)ncnc32)c1` [Example T335, 4-(3-chloro-4-(6-(1-methylcyclopropoxy)-9-((4-methylpyridin-2-yl)methyl)-9H-purin-8-yl)phenoxy)tetrahydro-2H-thiopyran 1,1-dioxide]: the IC50 was 0.251 µM in the test on DLD-1 BRCA2−/− cells (setting [3]) and more than 10 µM in the test on DLD-1 cells (setting [4]).

With `Cc1ccnc(Cn2c(-c3ccc(N4C[C@H]5C[C@@H]4CN5)cc3Cl)nc3c(OC4(C)CC4)ncnc32)c1` [Example T336, 8-(4-((1R,4R)-2,5-diazabicyclo[2.2.1]heptan-2-yl)-2-chlorophenyl)-6-(1-methylcyclopropoxy)-9-((4-methylpyridin-2-yl)methyl)-9H-purine], the IC50 is 1.58 µM with DLD-1 BRCA2−/− cells (setting [3]) and more than 10 µM with DLD-1 cells (setting [4]).

Consider `Cc1ccnc(Cn2c(-c3ccc(C(=O)N4CCNCC4)cc3Cl)nc3c(OC4(C)CC4)ncnc32)c1` [Example T337, (3-chloro-4-(6-(1-methylcyclopropoxy)-9-((4-methylpyridin-2-yl)methyl)-9H-purin-8-yl)phenyl)(piperazin-1-yl)methanone], for which the IC50 in the test with DLD-1 BRCA2−/− cells (setting [3]) is 5.01 µM; in the test with DLD-1 cells (setting [4]), more than 10 µM.

With `Cc1ccnc(Cn2c(-c3ccc(NC(=O)N4CC[C@@H](O)C4)cc3Cl)nc3c(OC4(C)CC4)ncnc32)c1` [Example T342, (R)-N-(3-chloro-4-(6-(1-methylcyclopropoxy)-9-((4-methylpyridin-2-yl)methyl)-9H-purin-8-yl)phenyl)-3-hydroxypyrrolidine-1-carboxamide], the IC50 is more than 3.98 µM in the test on DLD-1 BRCA2−/− cells (setting [3]) and more than 10 µM in the test with DLD-1 cells (setting [4]).
